Laboratory results taken from publication PMC11641365, “Evaluation of In Vitro Biological Activity of Flavanone/Chromanone Derivatives: Molecular Analysis of Anticancer Mechanisms in Colorectal Cancer” (International Journal of Molecular Sciences, 2024).

Legend:
Type in all cases: cell-based, human
HMEC-1 = test: MTT cell viability assay, model of normal cells; conditions: difference of IC50 values
Procedure: The cytotoxic activity of the 3-benzylideneflavanones, 3-benzylidenechromanones derivatives (compounds 1, 2, 3, 4, 5) and 5′-(3-methoxyphenyl)-2-phenyl-4′,5′-dihydro-4H-spiro[chromano-3,3′-pirazol]-4-one (compound 3a) was evaluated using the MTT assay (4,5-dimethylthiazol-2-yl)-2,5-diphenyltetrazoliumbromide), a colorimetric method that quantifies cell viability.
Cell viability was determined using the metabolic microplate spectrophotometric assay with Methylthiazolyl diphenyltetrazolium bromide (MTT) (Sigma-Aldrich; St. Louis, MO, USA). The MTT method belongs to metabolic tests for determining cell viability and consists of measuring the absorbance of a violet solution of formazan, a product of the reduction of a water-soluble yellow MTT by oxidoreductive enzymes (mainly mitochondrial succinate dehydrogenase) of living cells. […]
The appropriate number of cells for a given cell line (6–8 × 10^3 cells/mL) were seeded onto colorless, sterile 96-well microplates (Nunc, Roskilde, Denmark) in the number appropriate for a given cell line. […] The absorbance of the formazan solution, after gentle mixing, was read at a wavelength of λ = 580 nm and a reference wavelength of λ = 720 nm (Biotek Power Wave HT, Biotek Instruments, Winooski, VT, USA). […] The absorbance of the control was taken as 100%.

Caco-2 [1] = test: Hydrogen peroxide level, H2DCFDA probe; conditions: compound at IC50, 24 h, vs control
Procedure: (§1) Cellular H2O2 levels were assessed using 2′,7′-dichlorodihydrofluorescein diacetate (H2DCFDA, Sigma-Aldrich, St. Louis, MO, USA), a well-established fluorogenic probe for intracellular hydrogen peroxide detection. H2DCFDA readily diffuses across the cell membrane and is subsequently hydrolyzed by intracellular esterases to non-fluorescent H2DCF. Oxidation of H2DCF by ROS generates highly fluorescent 2′,7′-dichlorofluorescein (DCF), which accumulates in the cytosol. […] The fluorescence intensity of DCF is directly proportional to the concentration of ROS within the cell.
(§2) Cells were seeded in black 96-well fluorometric microplates at a density of 10 × 10^3 cells/mL. […] Following compound incubation, the medium was removed, and the cell monolayers were washed twice with HBSS (140 mM NaCl, 5 mM KCl, 0.8 mM MgCl2, 1.8 mM CaCl2, 1 mM Na2HPO4, 10 mM HEPES, and 1% glucose). A volume of 50 µL of H2DCFDA solution in HBSS (final concentration 5 μM) was added to each well, and the cells were incubated for 30 min in the dark at 37 °C. After incubation with the H2DCFDA, fluorescence measurements were conducted using a Perkin-Elmer LS-5B spectrofluorometer (MA, USA) at the following excitation and fluorescence emission wavelengths: λex = 498 nm/λem = 522 nm. The fluorescence intensity of control cells was arbitrarily assigned a value of 100%. The results were expressed as percentages of control, calculated by comparing the fluorescence intensity ratio of the test samples to controls (100%). The fluorescence of samples was denoted as Δf in relation to the control.

Caco-2 [2] = test: Autophagy induction, monodansylcadaverine (MDC) fluorescence; conditions: compound at IC50, 24 h, vs control
Procedure: Autophagy induction in cells treated with the tested drugs was determined by measuring Monodansylcadaverine (MDC; Sigma-Aldrich; St. Louis, MO, USA) fluorescence according to a modified method described by Vázquez. […] In the cell, MDC accumulates in lipid-rich cell membranes. It has been shown that MDC can be used as a dye for detecting autophagy, as it accumulates in autophagolysosomes as a result of interaction with membrane lipids.
Cells were seeded in black 96-well fluorometric microplates at a density of 10 × 10^3 cells/mL. […] Following compound incubation, the medium was removed, and the cell monolayers were washed twice with HBSS (140 mM NaCl, 5 mM KCl, 0.8 mM MgCl2, 1.8 mM CaCl2, 1 mM Na2HPO4, 10 mM HEPES, and 1% glucose). A solution of MDC at a final concentration of 50 μM was added to each well and incubated in a CO2 cell culture incubator at 37 °C for 15 min. After incubation with MDC, the probe was removed, and the cells were lysed with 50 μL of lysis buffer (10 mM TRIS-HCl; pH 8 containing 0.1% Triton X-100). After lysis, fluorescence was measured at an excitation wavelength of λex = 390 nm and an emission wavelength of λem = 460 nm using a Perkin-Elmer LS-5B spectrofluorometer (Waltham, MA, USA). In order to normalize the number of cells in individual samples, the amount of DNA was determined by adding 50 μL of EB (final concentration 0.2 mM) to each well after measuring the MCB fluorescence and measuring the EB fluorescence at an excitation wavelength of λex = 530 nm and an emission wavelength of λem = 590 nm. The results were calculated as the ratio of MDC fluorescence to EB fluorescence.

HCT 116 = test: Hydrogen peroxide level, H2DCFDA probe; conditions: compound at IC50, 24 h
Procedure: as §1, §2

SW620 = test: Hydrogen peroxide level, H2DCFDA probe; conditions: compound at IC50, 24 h, vs control
Procedure: as §1, §2

Row | Compound | IC50 against HMEC-1 higher than for the majority of tested cancer cell lines (selectivity) (HMEC-1) | Increase in H2O2 levels (Caco-2 [1]) | Increase in MDC fluorescence intensity (autophagy) (Caco-2 [2]) | Effect on H2O2 levels (HCT 116) | Increase in H2O2 levels (SW620)
1 | O=C1/C(=C/c2ccccc2)COc2ccccc21 [Compound 1] | approximately 10 µM | approximately 25% | 25% | – | –
2 | O=C1/C(=C/c2ccccc2)C(c2ccccc2)Oc2ccccc21 (centres unmarked) [Compound 5] | – | – | – | did not affect H2O2 levels | 15%
